A word on the pIC50: it is −log10 of the IC50, conventionally taken in molar units. The low end stands for a high IC50, the high end for a low IC50.

These results are taken from the supplement of paper PMC12076712.

Common to all, as to experiment: pIC50, kinobeads binding competition
Experiment [1] deals with T1, TTK (UniProt P33981).
T1 sequence (whole entry): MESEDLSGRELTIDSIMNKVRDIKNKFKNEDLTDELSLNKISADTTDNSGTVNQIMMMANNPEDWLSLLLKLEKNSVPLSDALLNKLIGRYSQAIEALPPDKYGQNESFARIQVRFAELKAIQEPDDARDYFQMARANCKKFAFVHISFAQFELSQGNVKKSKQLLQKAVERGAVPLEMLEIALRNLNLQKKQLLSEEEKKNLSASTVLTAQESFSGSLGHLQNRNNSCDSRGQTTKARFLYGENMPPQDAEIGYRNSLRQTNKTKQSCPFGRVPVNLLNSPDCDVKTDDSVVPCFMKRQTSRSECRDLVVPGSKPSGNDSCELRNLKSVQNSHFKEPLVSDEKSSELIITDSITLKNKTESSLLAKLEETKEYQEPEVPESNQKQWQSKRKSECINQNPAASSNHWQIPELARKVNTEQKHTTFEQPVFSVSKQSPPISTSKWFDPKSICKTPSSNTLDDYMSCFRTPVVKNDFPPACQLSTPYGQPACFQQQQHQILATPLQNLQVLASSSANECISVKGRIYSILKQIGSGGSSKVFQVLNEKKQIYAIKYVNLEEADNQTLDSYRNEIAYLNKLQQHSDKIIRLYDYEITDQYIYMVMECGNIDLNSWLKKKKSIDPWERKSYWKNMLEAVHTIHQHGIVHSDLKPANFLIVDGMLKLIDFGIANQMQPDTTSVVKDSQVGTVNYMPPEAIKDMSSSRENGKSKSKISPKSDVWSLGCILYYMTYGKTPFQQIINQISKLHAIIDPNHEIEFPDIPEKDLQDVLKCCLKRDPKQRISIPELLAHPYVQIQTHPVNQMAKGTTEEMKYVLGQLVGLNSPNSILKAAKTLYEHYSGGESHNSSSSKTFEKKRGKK
The procedure, abridged:
(§1)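 pIC50 was obtained by fitting fold changes against vehicle to logistic dose-response curves with the R drc package, using biological duplicates. Kinobeads-bound proteins were digested and measured by TMT10 LC-MS/MS. Before this, either living Jurkat cells received nine compound concentrations (top 30 μM, 1:4 steps) for 60 min at 37 °C prior to lysis, or Jurkat lysate or a 1:1:1:1 HEK293/K-562/HepG2/placenta lysate mix received nine concentrations (top 30 μM, 1:5 steps) for 60 min at 4 °C.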

In experiment [2] the target is T2, UniProt Q13043.
T2 sequence (whole entry): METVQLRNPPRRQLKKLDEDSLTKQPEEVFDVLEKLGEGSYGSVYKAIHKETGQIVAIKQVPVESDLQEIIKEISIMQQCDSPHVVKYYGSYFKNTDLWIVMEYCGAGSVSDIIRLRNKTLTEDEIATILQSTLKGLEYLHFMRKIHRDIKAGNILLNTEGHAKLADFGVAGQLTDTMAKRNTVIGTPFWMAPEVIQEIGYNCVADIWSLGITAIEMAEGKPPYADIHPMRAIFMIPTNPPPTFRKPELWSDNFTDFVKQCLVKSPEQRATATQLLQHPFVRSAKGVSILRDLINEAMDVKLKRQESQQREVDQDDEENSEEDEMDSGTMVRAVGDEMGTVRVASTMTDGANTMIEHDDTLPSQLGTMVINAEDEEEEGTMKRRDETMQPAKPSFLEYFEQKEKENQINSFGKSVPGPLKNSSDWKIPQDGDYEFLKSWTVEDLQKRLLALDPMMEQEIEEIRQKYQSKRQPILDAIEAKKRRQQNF
The procedure, abridged:
as §1

The target in experiment [3] is T3, PRKD2 (UniProt Q9BZL6).
T3 sequence (whole entry): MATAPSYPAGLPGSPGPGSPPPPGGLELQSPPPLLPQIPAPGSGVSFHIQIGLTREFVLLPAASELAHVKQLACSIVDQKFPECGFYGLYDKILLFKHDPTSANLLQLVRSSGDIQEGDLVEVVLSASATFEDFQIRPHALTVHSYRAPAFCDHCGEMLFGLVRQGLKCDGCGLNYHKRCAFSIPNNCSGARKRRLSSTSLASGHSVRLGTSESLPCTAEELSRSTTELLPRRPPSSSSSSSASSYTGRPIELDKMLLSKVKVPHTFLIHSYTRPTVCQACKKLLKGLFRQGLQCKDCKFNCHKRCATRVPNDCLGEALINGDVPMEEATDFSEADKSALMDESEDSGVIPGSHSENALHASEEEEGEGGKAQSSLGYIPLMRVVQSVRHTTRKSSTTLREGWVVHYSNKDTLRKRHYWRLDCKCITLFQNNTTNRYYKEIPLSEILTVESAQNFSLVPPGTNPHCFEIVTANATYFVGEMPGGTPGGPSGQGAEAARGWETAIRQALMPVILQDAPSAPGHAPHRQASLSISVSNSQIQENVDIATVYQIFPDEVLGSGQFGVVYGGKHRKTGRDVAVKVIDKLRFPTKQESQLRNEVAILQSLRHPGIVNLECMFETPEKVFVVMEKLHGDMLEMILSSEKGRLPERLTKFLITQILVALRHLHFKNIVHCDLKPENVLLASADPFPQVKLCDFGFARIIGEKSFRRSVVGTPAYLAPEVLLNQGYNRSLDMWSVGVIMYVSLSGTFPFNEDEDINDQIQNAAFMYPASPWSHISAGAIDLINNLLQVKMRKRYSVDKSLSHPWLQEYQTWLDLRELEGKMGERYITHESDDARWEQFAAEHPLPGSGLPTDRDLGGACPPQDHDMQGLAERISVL
The procedure, abridged: as §1

Experiment [4] has as its target T4, UniProt P78356.
T4 sequence (whole entry): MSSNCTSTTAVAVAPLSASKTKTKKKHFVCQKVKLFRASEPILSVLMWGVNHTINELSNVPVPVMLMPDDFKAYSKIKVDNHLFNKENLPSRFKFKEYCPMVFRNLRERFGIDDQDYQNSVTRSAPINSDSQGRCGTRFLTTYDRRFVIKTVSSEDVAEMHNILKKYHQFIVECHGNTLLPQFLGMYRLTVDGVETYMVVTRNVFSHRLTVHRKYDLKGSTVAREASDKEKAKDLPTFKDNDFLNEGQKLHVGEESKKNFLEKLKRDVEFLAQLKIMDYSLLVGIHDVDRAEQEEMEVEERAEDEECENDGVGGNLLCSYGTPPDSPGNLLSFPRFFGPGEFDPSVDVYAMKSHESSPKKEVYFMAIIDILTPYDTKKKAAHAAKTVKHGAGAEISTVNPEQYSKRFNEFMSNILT
An outline of the steps: as §1

Consider `O=C(NCCNC(=O)c1cc(Nc2cc(C3CC3)[nH]n2)nc(N2CCN(Cc3ccc(S(=O)(=O)F)cc3)CC2)n1)OC1CC/C=C/CCC1` (stereo not drawn), for which the pIC50 was less than 4.52 in experiment [1] (cell material: Jurkat cells); less than 4.52 in experiment [1] (cell material: Jurkat lysate); less than 4.52 in experiment [1] (cell material: Lysate mix); 5.98 in experiment [2] (cell material: Jurkat cells); 4.72 in experiment [2] (cell material: Jurkat lysate); 4.99 in experiment [2] (cell material: Lysate mix). Moreover, the pIC50 in experiment [3] (cell material: Jurkat cells), in experiment [3] (cell material: Jurkat lysate), in experiment [3] (cell material: Lysate mix), in experiment [4] (cell material: Jurkat lysate) and in experiment [4] (cell material: Lysate mix) was less than 4.52 in each case.
Regarding `Cc1cc(Nc2cc(C(=O)NCCNC(=O)OC3CC/C=C/CCC3)nc(N3CCN(Cc4ccc(S(=O)(=O)F)cc4)CC3)n2)n[nH]1` (stereo not drawn), the pIC50 in experiment [1] (cell material: Lysate mix) was less than 4.52; in experiment [2] (cell material: Lysate mix), 4.74; in experiment [3] (cell material: Lysate mix), less than 4.52; in experiment [4] (cell material: Lysate mix) it was less than 4.52.
Regarding `CCNC(=O)c1cc(Nc2cc(C)[nH]n2)nc(N2CCN(Cc3ccc(S(=O)(=O)F)cc3)CC2)n1`, the negative-log IC50 (pIC50) is less than 4.52 in experiment [1] (cell material: Lysate mix), 5.8 in experiment [2] (cell material: Lysate mix), less than 4.52 in experiment [3] (cell material: Lysate mix) and less than 4.52 in experiment [4] (cell material: Lysate mix).
Take `C#CCNC(=O)c1cc(Nc2cc(C3CC3)[nH]n2)nc(N2CCN(Cc3ccc(S(=O)(=O)F)cc3)CC2)n1`: the pIC50 in experiment [1] (cell material: Jurkat cells) was 5.56; in experiment [1] (cell material: Jurkat lysate) it was less than 4.52; in experiment [1] (cell material: Lysate mix) it was less than 4.52; in experiment [2] (cell material: Jurkat cells) it was 6.35; in experiment [2] (cell material: Jurkat lysate), 5.89; in experiment [2] (cell material: Lysate mix), 6.8. Further, the pIC50 was 5.42 in experiment [3] (cell material: Jurkat cells); less than 4.52 in experiment [3] (cell material: Jurkat lysate); less than 4.52 in experiment [3] (cell material: Lysate mix); less than 4.52 in experiment [4] (cell material: Jurkat lysate); less than 4.52 in experiment [4] (cell material: Lysate mix).
Consider `C#CCNC(=O)c1cc(Nc2cc(C)[nH]n2)nc(N2CCN(Cc3ccc(S(=O)(=O)F)cc3)CC2)n1`, for which the pIC50 in experiment [1] (cell material: Lysate mix) is less than 4.52; in experiment [2] (cell material: Lysate mix), 5.98; in experiment [3] (cell material: Lysate mix) it was less than 4.52; in experiment [4] (cell material: Lysate mix) it was less than 4.52.
As for `CCNC(=O)c1cc(Nc2cc(C3CC3)[nH]n2)nc(N2CCN(Cc3ccc(S(=O)(=O)F)cc3)CC2)n1`, the pIC50 in experiment [1] (cell material: Lysate mix) was less than 4.52; in experiment [2] (cell material: Lysate mix) it was 6.06; in experiment [3] (cell material: Lysate mix), less than 4.52; in experiment [4] (cell material: Lysate mix), less than 4.52.
